The text below walks through data of US20240425491A1, “HETEROARYL COMPOUNDS USEFUL IN THE TREATMENT OF COGNITIVE DISORDERS” (University College Cardiff Consultants Limited, priority 2021, published 2024).

Assay [1] deals with T1, human α5β3γ2 GABAARs in mouse L(tk−) cells (Homo sapiens, UniProt P18507+P31644).
T1 construct: expressed in transfected cells; host or cells: mouse L(tk−) cells, dexamethasone-inducible vector pMSGneo
Kind of assay: In vitro electrophysiological recording assay (α5-GABAAR relative efficacy), QPatch. It is filed as cell-based. Conditions: GABA EC10-20. In a few lines: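 Whole-cell QPatch recordings at 20-22° C, −65 mV holding, in dexamethasone-induced (1 μM, 24 h) L(tk−) cells. Compound pre-applied ≥1 min, then co-applied with GABA EC10-20; percentage change in leak-corrected peak current, taken at ≥100× Ki, normalised to DMCM efficacy; 0.1% DMSO final.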

In assay [2] the target is T2, human recombinant GABAAR containing α5β3γ2 subunits (benzodiazepine site) (Homo sapiens, UniProt P18507+P31644).
T2 construct: expressed in transfected cells; host or cells: mouse L(tk−) cells, dexamethasone-inducible vector pMSGneo
Nature of the assay: In vitro radioligand binding assay (α5-GABAAR Ki). To be noted: inhibition of [3H]Ro15-1788 binding, membranes of L(tk−) cells expressing human α5β3γ2; read-out: α5-GABAAR Ki. The essentials:
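Membranes from mouse L(tk^−) cells stably expressing human α5β3γ2 GABAAR incubated 1 h at 4° C with 4 nM [^3H]Ro15-1788 and test compound; nonspecific binding with 1 μM TP003. Filter-bound radioactivity counted; Ki from IC50 by Cheng-Prusoff using measured Kd.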

Where a name gives a salt, the structure may show the parent alone.

T1 sequence (P31644 32-462): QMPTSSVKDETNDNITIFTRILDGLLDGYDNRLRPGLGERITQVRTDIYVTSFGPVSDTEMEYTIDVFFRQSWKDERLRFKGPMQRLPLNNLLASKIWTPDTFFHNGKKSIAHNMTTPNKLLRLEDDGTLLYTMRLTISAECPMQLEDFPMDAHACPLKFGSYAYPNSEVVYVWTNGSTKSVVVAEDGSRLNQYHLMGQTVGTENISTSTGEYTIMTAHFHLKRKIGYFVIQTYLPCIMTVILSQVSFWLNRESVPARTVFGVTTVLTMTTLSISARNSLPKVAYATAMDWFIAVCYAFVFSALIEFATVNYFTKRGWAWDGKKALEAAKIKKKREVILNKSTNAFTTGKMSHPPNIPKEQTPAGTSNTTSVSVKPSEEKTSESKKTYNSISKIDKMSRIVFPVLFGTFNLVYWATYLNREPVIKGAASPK
T1 sequence (P28472 26-473 partner): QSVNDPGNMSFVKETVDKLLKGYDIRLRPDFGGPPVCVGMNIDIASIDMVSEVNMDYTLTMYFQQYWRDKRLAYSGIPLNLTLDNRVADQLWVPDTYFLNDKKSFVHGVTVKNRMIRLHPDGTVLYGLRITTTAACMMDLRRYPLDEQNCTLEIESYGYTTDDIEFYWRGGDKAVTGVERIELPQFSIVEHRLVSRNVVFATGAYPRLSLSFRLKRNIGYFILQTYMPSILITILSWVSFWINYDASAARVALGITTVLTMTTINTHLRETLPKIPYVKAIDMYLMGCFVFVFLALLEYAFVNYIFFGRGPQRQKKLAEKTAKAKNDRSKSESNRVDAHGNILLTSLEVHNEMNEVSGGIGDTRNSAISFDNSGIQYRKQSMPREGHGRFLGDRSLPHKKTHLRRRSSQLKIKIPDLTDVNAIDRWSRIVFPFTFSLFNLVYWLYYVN
T1 sequence (P18507 40-475): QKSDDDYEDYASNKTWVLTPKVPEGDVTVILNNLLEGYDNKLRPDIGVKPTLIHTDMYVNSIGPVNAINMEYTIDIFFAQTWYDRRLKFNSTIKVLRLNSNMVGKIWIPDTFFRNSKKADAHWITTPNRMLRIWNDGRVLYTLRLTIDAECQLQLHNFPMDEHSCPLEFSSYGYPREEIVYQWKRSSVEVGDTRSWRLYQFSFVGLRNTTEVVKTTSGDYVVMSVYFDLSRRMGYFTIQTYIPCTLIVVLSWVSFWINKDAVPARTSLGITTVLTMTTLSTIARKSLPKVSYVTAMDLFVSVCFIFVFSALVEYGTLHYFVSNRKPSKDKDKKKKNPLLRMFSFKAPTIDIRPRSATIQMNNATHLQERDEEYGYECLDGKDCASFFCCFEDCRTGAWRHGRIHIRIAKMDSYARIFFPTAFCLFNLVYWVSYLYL
T2 sequence (P31644 32-462): as the sequence (P31644 32-462) above
T2 sequence (P28472 26-473 partner): as the sequence (P28472 26-473 partner) above
T2 sequence (P18507 40-475): as the sequence (P18507 40-475) above

As to `COc1nc(-c2c[nH]c(=O)c(F)c2)ccc1NC(=O)c1c(C)nnn1-c1ccccc1` [Example 164, N-(5′-Fluoro-6-methoxy-6′-oxo-1′,6′-dihydro-[2,3′-bipyridin]-5-yl)-4-methyl-1-phenyl-1H-1,2,3-triazole-5-carboxamide], the “α5-GABAAR Relative Efficacy (to DMCM), Qpatch” value (shortened to “α5-GABAAR Relative Efficacy”) in assay [1] (Conc 3 μM) is listed as −0.65. Also, the inhibitory constant (Ki) in assay [2] stood at 27.2 nM.

As for `COc1nc(-c2cnc(C(N)=O)nc2)ccc1NC(=O)c1c(C)nnn1-c1ccccc1` [Example 165, 5-(6-Methoxy-5-(4-methyl-1-phenyl-1H-1,2,3-triazole-5-carboxamido)pyridin-2-yl)pyrimidine-2-carboxamide], the “α5-GABAAR Relative Efficacy” value in assay [1] (Conc 3 μM) was −0.84. Further, the Ki in assay [2] came to 35.4 nM.

Take `CNc1ncc(-c2ccc(NC(=O)c3c(C)nnn3-c3ccccc3)c(OC)n2)cn1` [Example 166, N-(2-Methoxy-6-(2-(methylamino)pyrimidin-5-yl)pyridin-3-yl)-4-methyl-1-phenyl-1H-1,2,3-triazole-5-carboxamide]: in assay [1] (Conc 3 μM), the “α5-GABAAR Relative Efficacy” value is given as −0.98. Further, in assay [2], the Ki is 31 nM.

Turning to `COc1nc(-c2cnc(NCCN(C)C)nc2)ccc1NC(=O)c1c(-c2ccccc2)noc1C` [Example 167, N-[6-[2-[2-(Dimethylamino)ethylamino]pyrimidin-5-yl]-2-methoxy-3-pyridyl]-5-methyl-3-phenyl-isoxazole-4-carboxamide], the “α5-GABAAR Relative Efficacy” value in assay [1] (Conc 1 μM) is reported as −0.92. Also, in assay [2], the Ki was 0.7 nM.

For the compound `CNCc1ncc(-c2ccc(NC(=O)c3c(-c4ccccc4)noc3C)c(OC)n2)cn1.Cl` [Example 168, N-[2-Methoxy-6-[2-(methylaminomethyl)pyrimidin-5-yl]-3-pyridyl]-5-methyl-3-phenyl-isoxazole-4-carboxamide hydrochloride], in assay [1] (Conc 0.3 μM), the “α5-GABAAR Relative Efficacy” value is −0.72. Further, the Ki in assay [2] was 2.7 nM.

For the compound `CNCc1ncc(-c2cnc(NC(=O)c3c(-c4ccccc4)noc3C)c(OC)n2)cn1.Cl` [Example 169, N-[3-Methoxy-5-[2-(methylaminomethyl)pyrimidin-5-yl]pyrazin-2-yl]-5-methyl-3-phenyl-isoxazole-4-carboxamide hydrochloride], in assay [1] (Conc 1 μM), the “α5-GABAAR Relative Efficacy” value is −0.88. Also, in assay [2], the Ki turned out to be 5.2 nM.

For the compound `CNCCNc1ncc(-c2ccc(NC(=O)c3c(-c4ccccc4)noc3C)c(OC)n2)cn1.Cl` [Example 170, N-[2-Methoxy-6-[2-[2-(methylamino)ethylamino]pyrimidin-5-yl]-3-pyridyl]-5-methyl-3-phenyl-isoxazole-4-carboxamide hydrochloride], the “α5-GABAAR Relative Efficacy” value in assay [1] (Conc 0.1 μM) is on record as −0.84. In assay [2], the Ki was determined as 0.5 nM.

For the compound `COc1nc(-c2cnc(NCCN)nc2)ccc1NC(=O)c1c(-c2ccccc2)noc1C.Cl` [Example 171, N-[6-[2-(2-Aminoethylamino)pyrimidin-5-yl]-2-methoxy-3-pyridyl]-5-methyl-3-phenyl-isoxazole-4-carboxamide hydrochloride], the “α5-GABAAR Relative Efficacy” value in assay [1] (Conc 0.1 μM) is reported as −0.75. Besides, the inhibition constant Ki in assay [2] amounted to 3.8 nM.

As to `COc1nc(-c2cnc(C(=O)NCCN(C)C)nc2)ccc1NC(=O)c1c(-c2ccccc2)noc1C` [Example 172, N-[6-[2-[2-(Dimethylamino)ethylcarbamoyl]pyrimidin-5-yl]-2-methoxy-3-pyridyl]-5-methyl-3-phenyl-isoxazole-4-carboxamide], the “α5-GABAAR Relative Efficacy” value in assay [1] (Conc 0.1 μM) is recorded as −0.80. Besides, the inhibition constant Ki in assay [2] came out at 0.2 nM.

As to `CNCCNC(=O)c1ncc(-c2ccc(NC(=O)c3c(-c4ccccc4)noc3C)c(OC)n2)cn1.Cl` [Example 173, N-[2-Methoxy-6-[2-[2-(methylamino)ethylcarbamoyl]pyrimidin-5-yl]-3-pyridyl]-5-methyl-3-phenyl-isoxazole-4-carboxamide hydrochloride], the “α5-GABAAR Relative Efficacy” value in assay [1] (Conc 0.1 μM) is given as −0.88. Further, the inhibition constant (Ki) in assay [2] was found to be 0.3 nM.

Take `COc1nc(-c2ccn3nc(N)nc3c2)ccc1NC(=O)c1c(-c2ccccc2)nnn1C` [Example 174, N-(6-(2-Amino-[1,2,4]triazolo[1,5-a]pyridin-7-yl)-2-methoxypyridin-3-yl)-1-methyl-4-phenyl-1H-1,2,3-5-carboxamide]: the “α5-GABAAR Relative Efficacy” value in assay [1] (Conc 0.3 μM) is −0.84. Also, in assay [2], the inhibitory constant (Ki) was determined as 1.4 nM.

Take `COc1nc(-c2cnc(NCCO)nc2)ccc1NC(=O)c1c(-c2ccccc2)noc1C` [Example 175, N-[6-[2-(2-Hydroxyethylamino)pyrimidin-5-yl]-2-methoxy-3-pyridyl]-5-methyl-3-phenyl-isoxazole-4-carboxamide]: the “α5-GABAAR Relative Efficacy” value in assay [1] (Conc 0.1 μM) is on record as −0.89. Moreover, the Ki in assay [2] worked out at 0.5 nM.

Turning to `Cc1onc(-c2ccccc2)c1C(=O)Nc1ccc(-n2ccnc2)nc1N(C)C` [Example 176, N-[2-(Dimethylamino)-6-imidazol-1-yl-3-pyridyl]-5-methyl-3-phenyl-isoxazole-4-carboxamide], the “α5-GABAAR Relative Efficacy” value in assay [1] (Conc 1 μM) is reported as −0.36. Moreover, in assay [2], the Ki worked out at 9 nM.

Turning to `COc1nc(-n2cnc3c2CCNC3)ccc1NC(=O)c1c(-c2ccccc2)noc1C.Cl` [Example 178, N-[2-methoxy-6-(4,5,6,7-tetrahydroimidazo[4,5-c]pyridin-1-yl)-3-pyridyl]-5-methyl-3-phenyl-isoxazole-4-carboxamide hydrochloride], the “α5-GABAAR Relative Efficacy” value in assay [1] (Conc 0.3 μM) was −0.62. Besides, the Ki in assay [2] was 2 nM.

For the compound `CNCc1ccc(-c2ccc(NC(=O)c3c(-c4ccccc4)noc3C)c(OC)n2)cc1.Cl` [Example 183, N-[2-Methoxy-6-[4-(methylaminomethyl)phenyl]-3-pyridyl]-5-methyl-3-phenyl-isoxazole-4-carboxamide hydrochloride], the “α5-GABAAR Relative Efficacy” value in assay [1] (Conc 3 μM) was −0.68. The Ki in assay [2] amounted to 14.2 nM.

In the case of `COc1nc(-c2cnc(CN)nc2)ccc1NC(=O)c1c(-c2ccc(F)cc2)nnn1C.Cl` [Example 184, N-(6-(2-(Aminomethyl)pyrimidin-5-yl)-2-methoxypyridin-3-yl)-4-(4-fluorophenyl)-1-methyl-1H-1,2,3-triazole-5-carboxamide hydrochloride], in assay [1] (Conc 0.3 μM), the “α5-GABAAR Relative Efficacy” value is listed as −0.45. In addition, in assay [2], the Ki came out at 1.5 nM.

As for `COc1nc(-c2ncn3c2CN(C)CC3)ccc1NC(=O)c1c(-c2ccccc2)noc1C` [Example 186, N-(2-Methoxy-6-(7-methyl-5,6,7,8-tetrahydroimidazol[1,5-a]pyrazin-1-yl)pyridin-3-yl)-5-methyl-3-phenylisoxazole-4-carboxamide], the “α5-GABAAR Relative Efficacy” value in assay [1] (Conc 3 μM) is recorded as −0.69. For the same compound, the Ki in assay [2] was 17.5 nM.

In the case of `COc1nc(-c2ncn3c2CNCC3)ccc1NC(=O)c1c(-c2ccccc2)noc1C` [Example 187, N-(2-Methoxy-6-(5,6,7,8-tetrahydroimidazo[1,5-a]pyrazin-1-yl)pyridin-3-yl)-5-methyl-3-phenylisoxazole-4-carboxamide dihydrochloride], the “α5-GABAAR Relative Efficacy” value in assay [1] (Conc 3 μM) was −0.46. In assay [2], the Ki stood at 23.5 nM.

For `COc1nc(-c2cnc(NC3CNC3)nc2)ccc1NC(=O)c1c(-c2ccccc2)noc1C` [Example 188, N-[6-[2-(Azetidin-3-ylamino)pyrimidin-5-yl]-2-methoxy-3-pyridyl]-5-methyl-3-phenyl-isoxazole-4-carboxamide], the “α5-GABAAR Relative Efficacy” value in assay [1] (Conc 0.1 μM) is −1.08. Further, in assay [2], the Ki was found to be 0.5 nM.

On to `COc1nc(-c2cn(CCN)cn2)ccc1NC(=O)c1c(-c2ccccc2)noc1C` [Example 200, N-(6-(1-(2-Aminoethyl)-1H-imidazol-4-yl)-2-methoxypyridin-3-yl)-5-methyl-3-phenylisoxazole-4-carboxamide dihydrochloride], for which the “α5-GABAAR Relative Efficacy” value in assay [1] (Conc 3 μM) was −0.53. Also, the Ki in assay [2] was found to be 16.8 nM.

On to `Cc1onc(-c2ccc(F)cc2)c1C(=O)Nc1ccc(-n2ccnc2)nc1OC(C)C` [Example 204, 3-(4-Fluorophenyl)-N-(6-imidazol-1-yl-2-isopropoxy-3-pyridyl)-5-methyl-isoxazole-4-carboxamide], for which, in assay [1] (Conc 0.1 μM), the “α5-GABAAR Relative Efficacy” value is on record as −0.39. Moreover, the Ki in assay [2] came to 1.1 nM.

For `Cc1onc(-c2ccc(F)cc2)c1C(=O)Nc1ccc(-c2cnc(CN)nc2)nc1OC(C)C.Cl` [Example 205, N-(6-(2-(Aminomethyl)pyrimidin-5-yl)-2-isopropoxypyridin-3-yl)-3-(4-fluorophenyl)-5-methylisoxazole-4-carboxamide hydrochloride], in assay [1] (Conc 0.1 μM), the “α5-GABAAR Relative Efficacy” value was −0.61. Moreover, in assay [2], the Ki worked out at 0.4 nM.
